Test results from paper PMC9186412, “Rational Framework for the Design of Trp- and Arg-Rich Peptide Antibiotics Against Multidrug-Resistant Bacteria” (Frontiers in Microbiology, 2022).
In brackets after ≈: the same amount, converted by molar mass. Like-named read-outs stand apart in the source and are kept apart here. Where no end group is shown, it is not given here.

Assays:
[1] = system: Enterobacter spp; test: microbe, parasite or virus in culture; assay type: cell-based, Enterobacter spp (aerogenes, cloacae); conditions: Enterobacter, 18 h, UPMC, MHB2, 18 h, 37°C
Procedure: (§1) Bacterial clinical isolates, used for initial screening and in previous studies ([Deslouches et al., 2013]; [Lin et al., 2018]), were anonymously provided by the clinical microbiology laboratory of the University of Pittsburgh medical Center. The panel used for secondary screening was from [CDC (2013)] (Supplementary Table 3), with resistance profiles data. Bacteria are stored in lock-secured –80°C freezer and typically retrieved by obtaining single colonies on agar plates prior for subsequent liquid broth cultures. Suspensions of test bacteria were prepared from log phase of growth by diluting overnight cultures at 1:100 with fresh cation-adjusted MHB (MHB2, Millipore Sigma, United States) and incubating for additional 3–4 h. Bacteria were spun at 3,000 × g for 10 min and the pellet resuspended in test condition media (Millipore Sigma, United States) to determine bacterial turbidity using a Den-1B densitometer (Grant Instruments, United States) at 0.5 McFarland (unit of bacterial density) corresponding to […].
(§2) To examine antibacterial activity, we used minor modifications of a standard growth inhibition assay endorsed by the Clinical and Laboratory Standards Institute (CLSI), as previously described ([Deslouches et al., 2013]). Bacteria were incubated with each of the indicated peptides in MHB2. The bacterial cells were kept in an incubator for 18 h at 37°C, which is linked to a robotic system that feeds a plate reader every hour with one of 8 × 96-well plates. This set-up allows the collection of growth kinetic data at A 570 (absorbance at 570 nm) to examine growth inhibition in real time (BioTek Instruments, United States). […] The assays are typically repeated a second time. If the MIC is different, a third experimental trial is performed to confirm the MIC. To assess bactericidal properties of the peptide, the assay was modified by using 15% fetal bovine serum (FBS, for a more physiologically relevant test condition) mixed with 25% MHB2 and 60% PBS. Bacterial cells (colony forming unit/mL or CFU/mL) were enumerated after incubating treated bacteria for 3 h and plating serially diluted samples on broth agar medium at 37°C overnight. Minimum bactericidal concentration (MBC) was determined as the peptide concentration at which complete bacterial killing was observed. […] Data were analyzed using GraphPad Prism software.

[2] = system: E. coli; test: microbe, parasite or virus in culture; assay type: cell-based, Escherichia coli; conditions: Escherichia coli, 18 h, MHB2, 18 h, 37°C
Procedure: as §1, §2

[3] = system: E. Faecium; test: microbe, parasite or virus in culture; assay type: cell-based, Enterococcus Facium; conditions: Enterococcus faecium, 18 h, MHB2, 18 h, 37°C
Procedure: as §1, §2

[4] = system: P. aeruginosa; test: microbe, parasite or virus in culture; assay type: cell-based, Pseudomonas aeruginosa; conditions: Pseudomonas aeruginosa, 18 h, MHB2, 18 h, 37°C
Procedure: as §1, §2

[5] = system: A. baumannii; test: microbe, parasite or virus in culture; assay type: cell-based, Acinetobacter baumannii; conditions: Acinetobacter baumannii, 18 h, MHB2, 18 h, 37°C
Procedure: as §1, §2

[6] = system: K. pneumoniae; test: microbe, parasite or virus in culture; assay type: cell-based, Klebsiella pneumoniae; conditions: 18 h
Procedure: as §1, §2

[7] = system: CDC AR isolates; design: key: S (green), susceptible; I (blue), intermediate; R (red), resistant; conditions: data provided by the CDC, ref CDC, cited from earlier work
From the text: Supplement Table_3.XLSX, sheet "CDC AR isolates profiles" | column: G(-) strains

[8] = system: ESKAPE pathogens and Escherichia coli; conditions: ESKAPE pathogens and
Procedure: Bacteria were incubated with each of the indicated peptides in MHB2. […] To assess bactericidal properties of the peptide, the assay was modified by using 15% fetal bovine serum (FBS, for a more physiologically relevant test condition) mixed with 25% MHB2 and 60% PBS. […] Data were analyzed using GraphPad Prism software.

[9] = system: human red blood cells (RBCs); conditions: at 16 μM; ref de Breij et al., 2018; cited from earlier work
[10] = system: CD-1 mice; test: Mouse toxicity, maximum tolerated dose (IV); assay type: in vivo
Procedure: For all animal experiments, we used the protocol #18071776 approved by the Institutional Animal Care and Use Committee (IACUC) of the University of Pittsburgh, which is consistent with the NIH guide for the care and use of laboratory animals. In a preliminary (pilot) experiment, female CD-1 mice (three per group) weighing about 20 g were injected different doses of peptides up to 45mpk via a lateral tail vein (IV) to determine an MTD (dose that results in no apparent morbidity or mortality). To confirm the MTD determined in the pilot study, CD-1 mice (seven per group) were randomized to receive a dose based on the preliminary MTD (IV) or PBS (100 μL). The animals were monitored for up to 7 days for morbidity and survival.

Compound: CC(C)(O/N=C(\C(=O)N[C@@H]1C(=O)N2C(C(=O)[O-])=C(C[n+]3ccccc3)CS[C@H]12)c1csc(N)n1)C(=O)O [Ceftazidime, reference compound]
- MIC ([1]; strain EA518 (aerogenes)): > 16 µM
- MIC ([1]; strain EA596 (aerogenes)): > 16 µM
- MIC ([1]; strain EC470 (cloacae)): > 16 µM
- MIC ([1]; strain EC560 (cloacae)): > 16 µM
- MIC ([2]; strain Eco25922): 1 µM (≈ 0.547 µg/mL)
- MIC ([2]; strain YDC107, UPMC): 4 µM (≈ 2.19 µg/mL)
- MIC ([2]; strain YDC337, UPMC): > 16 µM
- MIC ([2]; strain YDC748, UPMC): > 16 µM
- MIC ([3]; strain EF23614, UPMC): 8 µM (≈ 4.37 µg/mL)
- MIC ([3]; strain EF24670, UPMC): > 16 µM
- MIC ([4]; strain PA97-5, UPMC): 1 µM (≈ 0.547 µg/mL)
- MIC ([4]; strain PA129-5, UPMC): 2 µM (≈ 1.09 µg/mL)
- MIC ([5]; strain AB-A2, UPMC clinical strain, A570, confirmed by 2nd or 3rd trial): 1 µM (≈ 0.547 µg/mL)
- MIC ([5]; strain AB-A3, UPMC): > 16 µM
- MIC ([5]; strain AB-F8, UPMC): > 16 µM
- MIC ([5]; strain AB-F9, UPMC): 2 µM (≈ 1.09 µg/mL)
- MIC ([6]; Klebsiella pneumoniae, strain KP43816, MHB2, 18 h, 37°C): 1 µM (≈ 0.547 µg/mL)
- MIC ([6]; Klebsiella pneumoniae, strain KPA5 (colistin-resistant), UPMC, MHB2, 18 h, 37°C): 12 µM (≈ 6.56 µg/mL)
- MIC ([6]; Klebsiella pneumoniae, strain KPB3, UPMC, MHB2, 18 h, 37°C): 8 µM (≈ 4.37 µg/mL)
- MIC ([6]; Klebsiella pneumoniae, strain KPC3, UPMC, MHB2, 18 h, 37°C): > 16 µM
- Antibiotic susceptibility profile ([7]; Acinetobacter baumannii AB273, CDC AR isolate): R
- Antibiotic susceptibility profile ([7]; Acinetobacter baumannii AB274, CDC AR isolate): R
- Antibiotic susceptibility profile ([7]; Acinetobacter baumannii AB275, CDC AR isolate): R
- Antibiotic susceptibility profile ([7]; Acinetobacter baumannii AB276, CDC AR isolate): R
- Antibiotic susceptibility profile ([7]; Enterobacter cloacae E62, CDC AR isolate): S
- Antibiotic susceptibility profile ([7]; Enterobacter cloacae E544, CDC AR isolate): S
- Antibiotic susceptibility profile ([7]; Enterobacter cloacae E545, CDC AR isolate): S
- Antibiotic susceptibility profile ([7]; Enterobacter cloacae E546, CDC AR isolate): S
- Antibiotic susceptibility profile ([7]; Escherichia coli EC541, CDC AR isolate): S
- Antibiotic susceptibility profile ([7]; Escherichia coli EC543, CDC AR isolate): S
- Antibiotic susceptibility profile ([7]; Escherichia coli EC544, CDC AR isolate): S
- Antibiotic susceptibility profile ([7]; Escherichia coli EC549, CDC AR isolate): S
- Antibiotic susceptibility profile ([7]; Klebsiella pneumoniae KP542, CDC AR isolate): R
- Antibiotic susceptibility profile ([7]; Klebsiella pneumoniae KP548, CDC AR isolate): R
- Antibiotic susceptibility profile ([7]; Klebsiella pneumoniae KP550, CDC AR isolate): R
- Antibiotic susceptibility profile ([7]; Klebsiella pneumoniae KP552, CDC AR isolate): S
- Antibiotic susceptibility profile ([7]; Pseudomonas aeruginosa PA229, CDC AR isolate): R
- Antibiotic susceptibility profile ([7]; Pseudomonas aeruginosa PA230, CDC AR isolate): R
- Antibiotic susceptibility profile ([7]; Pseudomonas aeruginosa PA231, CDC AR isolate): R
- Antibiotic susceptibility profile ([7]; Pseudomonas aeruginosa PA232, CDC AR isolate): S
- Antibiotic susceptibility profile ([7]; Pseudomonas aeruginosa PA239, CDC AR isolate): R

Compound: CC(C)C[C@H](NC(=O)[C@H](Cc1ccccc1)NC(=O)[C@@H]1CCCN1C(=O)[C@H](Cc1c[nH]c2ccccc12)NC(=O)[C@H](Cc1c[nH]c2ccccc12)NC(=O)[C@H](Cc1c[nH]c2ccccc12)NC(=O)[C@@H]1CCCN1C(=O)[C@H](Cc1ccccc1)NC(=O)[C@H](CCCNC(=N)N)NC(=O)[C@H](CCCNC(=N)N)NC(=O)[C@@H](N)C(C)C)C(=O)N[C@@H](CCCNC(=N)N)C(=O)N[C@@H](CCCNC(=N)N)C(=O)O [tritrpticin]
- mean MIC [8]: > 10 µM

Compound: Ac-LKRVWKRVFKLLKRYWRQLKKPVR-NH2 [SAAP-148]
- RBC lysis [9]: moderate RBC lysis

Compound: H-RWVRRVRRVWRRVRRVVRRW-OH [E7]
- % RBC lysis: 5%

Compound: RRVVRRWRRVVRRWVRVWRRVVRR [E3]
- % RBC lysis: 17%
- MIC [6]: 8 µM

Compound: RRVWRWVRRVWRWVRR [E35]
- % RBC lysis: 22%
- morbidity and mortality ([10]; 7 CD-1 mice, 30 mpk systemically, monitored up to 7 days): no apparent morbidity and mortality
- tolerated systemic dose (maximum tolerated dose, MTD) ([10]; CD-1 mice, tail vein (IV), pilot with doses up to 45 mg/kg): up to 30 mpk
